Source: paper PMC8086144, “A novel peptide antagonist of the human growth hormone receptor” (The Journal of Biological Chemistry, 2021)

Key:
hGHR = biological target: T1, hGHR (Homo sapiens, UniProt P10912); experiment: hGH-mediated pSTAT5 in SK-MEL-28 cells, ELISA; type: cell-based; details: ELISA (pSTAT5A Y694/pSTAT5B Y699), SK-MEL-28 cells co-treated with hGH and 200 nM peptide, Equation 2, triplicate; for inhibition at 0.2 µM: SK-MEL-28, 20 min; for % pSTAT5 inhibition: 20 min
T1 construct: previously reported to express high levels of endogenous hGHR; host or cells: SK-MEL-28, MALME-3M, IM9
T1 sequence (P10912 19-638): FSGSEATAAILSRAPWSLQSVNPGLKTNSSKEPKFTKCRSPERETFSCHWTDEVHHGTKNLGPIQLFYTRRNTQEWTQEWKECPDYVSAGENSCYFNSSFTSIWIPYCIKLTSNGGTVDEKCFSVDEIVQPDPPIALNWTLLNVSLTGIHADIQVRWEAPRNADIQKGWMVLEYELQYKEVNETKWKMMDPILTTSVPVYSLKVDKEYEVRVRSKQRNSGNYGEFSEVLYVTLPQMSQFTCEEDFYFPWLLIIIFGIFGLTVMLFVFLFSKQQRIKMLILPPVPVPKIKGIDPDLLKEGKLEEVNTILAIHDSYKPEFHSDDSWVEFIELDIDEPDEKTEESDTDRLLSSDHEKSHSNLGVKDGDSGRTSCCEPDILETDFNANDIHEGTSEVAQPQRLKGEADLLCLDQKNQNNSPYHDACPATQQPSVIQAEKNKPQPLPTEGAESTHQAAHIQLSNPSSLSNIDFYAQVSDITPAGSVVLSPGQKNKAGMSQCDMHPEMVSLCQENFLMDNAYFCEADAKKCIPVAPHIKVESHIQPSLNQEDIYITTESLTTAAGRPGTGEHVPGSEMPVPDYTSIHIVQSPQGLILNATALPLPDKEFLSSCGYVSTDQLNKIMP
Procedure: SK-MEL-28, MALME-3M, and T84 cells were grown and maintained in Eagle's Minimal Essential Medium. IM9 and L cells were grown in RPMI-1640 media and Dulbecco's modified Eagle's medium, respectively. All growth media was supplemented with 10% fetal bovine serum and 1× antibiotic-antimycotic […] solution. Cells were grown at 37 °C under a 5% CO2 atmosphere in a humidified incubator, and growth media was replaced every 48 h during incubation. No hGH was present in or added to the growth media unless specifically indicated. Between 12 to 16 h after seeding, adherent cells (SK-MEL-28, MALME-3M, T84, L cells) were switched to serum-free growth media (no GH) and starved for 4 h before the addition of hGH, bGH (L cells), hPRL (MALME-3M and T84 cells), or buffer at the concentrations noted. Cells were then allowed to incubate for an additional 20 min before being harvested. For suspended cell treatments, IM9 cells were pelleted by centrifugation at 140g for 5 min at room temperature. The supernatant was then removed by aspiration, and the cells were resuspended in serum-free media. The cells were then starved for 4 h at 37 °C under a 5% CO2 atmosphere in a humidified incubator and subsequently treated with hGH, S1H, or both at the indicated concentrations for 20 min before harvesting by centrifugation.
Following treatment, the cells were harvested at the indicated time points, and the total protein was extracted. To affect protein extraction, the treatment media was removed by aspiration, and the cells were washed twice with ice-cold PBS. Following washing, total protein was extracted from the cells using RIPA buffer (100 μl/million cells) supplemented with 1.5× Halt protease and phosphatase inhibitor cocktail. Briefly, chilled RIPA buffer was added to the cells, and the lysis reaction was allowed to incubate for 5 min at 4 °C. Adherent cells were harvested for lysis using a sterile cell scraper. The resultant cell suspensions were sonicated on ice for 60 s with ON (2-s)/OFF (1-s) pulses at 2% power. The cell lysate was then cleared by centrifugation at 8000g for 10 min at 4 °C. Following centrifugation, the supernatant was collected and stored at −80 °C until further use. Sample protein concentration was quantified using a Bradford assay with bovine serum albumin as the protein standard. Absorbance at 595 nm was measured using a Spectramax 250 multimode plate reader (Molecular Devices) and processed using SoftmaxPro v4.7.1 software.
Intracellular pSTAT5A (Y694) and pSTAT5B (Y699) levels were quantified from clarified protein samples using an InstantOne ELISA kit (Thermo Fisher) according to the manufacturer’s instructions. Briefly, 50 μl of protein sample (1 mg/ml) were added to wells containing 50 μl antibody cocktail in a 96-well plate and incubated at room temperature for 2 h with shaking (300 rpm). Following incubation, the wells were washed, and the bound antibodies were detected by adding detection regent and incubating the plate for 1 h at room temperature with shaking (300 rpm). Following incubation, stop reagent was added, and the absorbance was read at 450 nm using a UV-VIS spectrophotometer (Molecular Devices, model M2). All experiments were performed in triplicate. Percent pSTAT5 inhibition was calculated from background-subtracted pSTAT5 levels using Equation 2:(2) %inhibition=100×(pSTAT5hGH−pSTAT5PI)/pSTAT5hGH where pSTAT5hGH is the fold-induction of pSTAT5 upon treatment with hGH alone and pSTAT5PI is the fold-induction of pSTAT5 upon co-treatment with hGH and peptide inhibitor.

[1] = Wavelength-dependent CD spectropolarimetry (helical propensity); type: physicochemical; details: 25 °C; for % α-helix + TFE / % α-helix - TFE: calculated from MRE at 222 nm (Equation 1); for % α-helix + TFE / [θ]222 + TFE (mean residue ellipticity at 222 nm): 20 μM peptide in PBS with 30% (v/v) TFE; for % α-helix - TFE / [θ]222 - TFE (mean residue ellipticity at 222 nm): 20 μM peptide in PBS, no TFE; for [θ]222 + TFE (mean residue ellipticity at 222 nm) / [θ]222 - TFE (mean residue ellipticity at 222 nm): far-UV CD, background-subtracted average of four scans, in deg·cm2/dmol (unit assumed)
Procedure: The solution-phase structure of each peptide was evaluated by wavelength-dependent CD spectropolarimetry. For analysis, stock peptides were diluted to a final concentration of 20 μM in PBS supplemented with or without 30% (v/v) TFE. All peptide solutions were allowed to equilibrate for 10 min at 25 °C before analysis. Far-UV wavelength scans were performed on a Jasco J-715 CD spectropolarimeter from 255 nm to 195 nm at 25 °C. Final spectra were generated from a background subtracted (buffer only) average of four scans. Data were processed using J-700 Software v1.5 (Jasco) and KaleidaGraph v4.5. Percent helicity was calculated from the mean residue ellipticity at 222 nm using Equation 1:(1) %helical content=100×([θ]222/(−39,000(1−2.57/n))) where [θ]222 is the mean residue ellipticity at 222 nm and n is the total number of peptide bonds ([86]).

[2] = biological target: T2, trypsin (bovine pancreas) (Bos taurus, UniProt P00760); experiment: Trypsin degradation of hGH and pegvisomant (HPLC and Western blot); type: in vitro ADME; details: 4 μg/ml trypsin in digestion buffer pH 7.8, 37 °C, up to 8 h, 25 μg/ml protein
T2 construct: purchased Sigma-Aldrich; host or cells: bovine pancreas
T2 sequence (P00760 24-246): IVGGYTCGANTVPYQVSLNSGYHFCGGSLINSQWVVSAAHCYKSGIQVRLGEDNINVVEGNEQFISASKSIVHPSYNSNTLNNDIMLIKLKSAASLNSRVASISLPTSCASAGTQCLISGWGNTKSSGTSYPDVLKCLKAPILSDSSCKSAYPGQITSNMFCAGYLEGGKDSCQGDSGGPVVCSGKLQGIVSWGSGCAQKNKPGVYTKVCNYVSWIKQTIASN
Procedure: (§1) The samples were then incubated at 95 °C for 5 min before being cooled on ice and stored at −80 °C. […] Following separation, the proteins were transferred to polyvinylidine difluoride membranes and subjected to Western blot analysis (vide infra). The fraction of intact protein was quantified by measuring the integrated density of each band contained within regions of the gel corresponding to “intact” or “degraded” proteins. […] These reactions were allowed to incubate at 37 °C for up to 8 h, with samples removed at selected timepoints for analysis. Following incubation, the samples were either mixed with 5× Laemmli loading buffer and subjected to SDS-PAGE for Western blot analysis (Fig. S5) or directly injected onto a C18 reversed-phase column for analysis by HPLC as described above for the S1H peptide (Fig. S4).

[3] = Stability of hGH and pegvisomant in human serum (Western blot); type: in vitro ADME; details: RPMI with 25% (v/v) heat-inactivated human AB serum, 37 °C, 25 μg/ml protein, SDS-PAGE/Western blot densitometry, average of three experiments
Procedure: as §1

Ac-YIPAEQKYSFLQNPQT-NH2 [S1H (K39A)] showed an inhibition at 0.2 µM (hGHR) of 88.5%.

With Ac-YIPKAQKYSFLQNPQT-NH2 [S1H (E40A)] the inhibition at 0.2 µM (hGHR) was 33.4%.

With Ac-YIPKEAKYSFLQNPQT-NH2 [S1H (Q41A)] the “% pSTAT5 inhibition” value (hGHR) was “reduced inhibitory effects compared with WT S1H”, the inhibition at 0.2 µM (hGHR) was 37.4% and the “% α-helix + TFE” value [1] was 25.4%. The “% α-helix - TFE” value [1] was 8.3%, the “[θ]222 + TFE (mean residue ellipticity at 222 nm)” value (“[θ]222 + TFE” for short) [1] was -8,400 and the “[θ]222 - TFE (mean residue ellipticity at 222 nm)” value (“[θ]222 - TFE” for short) [1] was -2,700.

For Ac-YIPKEQAYSFLQNPQT-NH2 [S1H (K42A)], the “% pSTAT5 inhibition” value (hGHR) was “reduced inhibitory effects compared with WT S1H”, the inhibition at 0.2 µM (hGHR) was 51.7% and the “% α-helix + TFE” value [1] was 24.4%. For the same substance, the “% α-helix - TFE” value [1] was 2.4%, the “[θ]222 + TFE” value [1] was -8,100 and the “[θ]222 - TFE” value [1] was -800.

In the case of Ac-YIPKEQKASFLQNPQT-NH2 [S1H (Y43A)], the “% pSTAT5 inhibition” value (hGHR) is reported as “comparable to WT S1H”, the inhibition at 0.2 µM (hGHR) is reported as 66.6% and the “% α-helix + TFE” value [1] is reported as 68.8%. For the same substance, the “% α-helix - TFE” value [1] was 11.2%, the “[θ]222 + TFE” value [1] was -22,800 and the “[θ]222 - TFE” value [1] was -3,700.

With Ac-YIPKEQKYAFLQNPQT-NH2 [S1H (S44A)] the “% pSTAT5 inhibition” value (hGHR) was “comparable to WT S1H”, the inhibition at 0.2 µM (hGHR) was 72.3% and the “% α-helix + TFE” value [1] was 63.5%. For the same substance, the “% α-helix - TFE” value [1] was 15.7%, the “[θ]222 + TFE” value [1] was -21,100 and the “[θ]222 - TFE” value [1] was -5,200.

With Ac-YIPKEQKYSALQNPQT-NH2 [S1H (F45A)] the “% pSTAT5 inhibition” value (hGHR) was “reduced inhibitory effects compared with WT S1H”, the inhibition at 0.2 µM (hGHR) was 52.5% and the “% α-helix + TFE” value [1] was 21.4%. For the same substance, the “% α-helix - TFE” value [1] was 11.1%, the “[θ]222 + TFE” value [1] was -7,100 and the “[θ]222 - TFE” value [1] was -3,700.

With Ac-YIPKEQKYSFAQNPQT-NH2 [S1H (L46A)] the “% pSTAT5 inhibition” value (hGHR) was “comparable to WT S1H”, the inhibition at 0.2 µM (hGHR) was 75.1% and the “% α-helix - TFE” value [1] was 7.0%. For the same substance, the “[θ]222 - TFE” value [1] was -2,300.

For Ac-YIPKEQKYSFLANPQT-NH2 [S1H (Q47A)], the inhibition at 0.2 µM (hGHR) was 30.1%, the “% α-helix + TFE” value [1] was 86.3% and the “% α-helix - TFE” value [1] was 8.2%. For the same substance, the “[θ]222 - TFE” value [1] was -2,700.

With Ac-YIPKEQKYSFLQAPQT-NH2 [S1H (N48A)] the inhibition at 0.2 µM (hGHR) was 89.1%, the “% α-helix + TFE” value [1] was 12.2% and the “% α-helix - TFE” value [1] was 6.7%. The “[θ]222 + TFE” value [1] was -4,100 and the “[θ]222 - TFE” value [1] was -2,200.

In the case of “hGH: recombinant human growth hormone, 191-amino acid peptide hormone (22 kDa)”, the “time to full degradation by trypsin” value [2] is reported as 8 h and the “protein remaining intact after 48 h in human serum” value [3] is reported as greater than 92%.
